Measurements: publication PMC5791972 (PLoS ONE, 2018)
“Also recorded” adds a separate entry of the source. Like-named read-outs stand apart in the source and are kept apart here.

What was measured:
[1] = target: T1, Kv7.1 (Homo sapiens, UniProt P51787); experiment: Ion channel selectivity patch clamp; format: cell-based; conditions: Voltage (+20 mV)
T1 construct: expressed in transfected cells

[2] = target: T2, Nav1.2 (Homo sapiens, UniProt Q99250); experiment: Ion channel selectivity patch clamp; format: cell-based
T2 construct: The cDNAs for various full-length ion channels were subcloned into pcDNA5/TO; expressed in transfected cells
T2 sequence (Q99250 whole entry): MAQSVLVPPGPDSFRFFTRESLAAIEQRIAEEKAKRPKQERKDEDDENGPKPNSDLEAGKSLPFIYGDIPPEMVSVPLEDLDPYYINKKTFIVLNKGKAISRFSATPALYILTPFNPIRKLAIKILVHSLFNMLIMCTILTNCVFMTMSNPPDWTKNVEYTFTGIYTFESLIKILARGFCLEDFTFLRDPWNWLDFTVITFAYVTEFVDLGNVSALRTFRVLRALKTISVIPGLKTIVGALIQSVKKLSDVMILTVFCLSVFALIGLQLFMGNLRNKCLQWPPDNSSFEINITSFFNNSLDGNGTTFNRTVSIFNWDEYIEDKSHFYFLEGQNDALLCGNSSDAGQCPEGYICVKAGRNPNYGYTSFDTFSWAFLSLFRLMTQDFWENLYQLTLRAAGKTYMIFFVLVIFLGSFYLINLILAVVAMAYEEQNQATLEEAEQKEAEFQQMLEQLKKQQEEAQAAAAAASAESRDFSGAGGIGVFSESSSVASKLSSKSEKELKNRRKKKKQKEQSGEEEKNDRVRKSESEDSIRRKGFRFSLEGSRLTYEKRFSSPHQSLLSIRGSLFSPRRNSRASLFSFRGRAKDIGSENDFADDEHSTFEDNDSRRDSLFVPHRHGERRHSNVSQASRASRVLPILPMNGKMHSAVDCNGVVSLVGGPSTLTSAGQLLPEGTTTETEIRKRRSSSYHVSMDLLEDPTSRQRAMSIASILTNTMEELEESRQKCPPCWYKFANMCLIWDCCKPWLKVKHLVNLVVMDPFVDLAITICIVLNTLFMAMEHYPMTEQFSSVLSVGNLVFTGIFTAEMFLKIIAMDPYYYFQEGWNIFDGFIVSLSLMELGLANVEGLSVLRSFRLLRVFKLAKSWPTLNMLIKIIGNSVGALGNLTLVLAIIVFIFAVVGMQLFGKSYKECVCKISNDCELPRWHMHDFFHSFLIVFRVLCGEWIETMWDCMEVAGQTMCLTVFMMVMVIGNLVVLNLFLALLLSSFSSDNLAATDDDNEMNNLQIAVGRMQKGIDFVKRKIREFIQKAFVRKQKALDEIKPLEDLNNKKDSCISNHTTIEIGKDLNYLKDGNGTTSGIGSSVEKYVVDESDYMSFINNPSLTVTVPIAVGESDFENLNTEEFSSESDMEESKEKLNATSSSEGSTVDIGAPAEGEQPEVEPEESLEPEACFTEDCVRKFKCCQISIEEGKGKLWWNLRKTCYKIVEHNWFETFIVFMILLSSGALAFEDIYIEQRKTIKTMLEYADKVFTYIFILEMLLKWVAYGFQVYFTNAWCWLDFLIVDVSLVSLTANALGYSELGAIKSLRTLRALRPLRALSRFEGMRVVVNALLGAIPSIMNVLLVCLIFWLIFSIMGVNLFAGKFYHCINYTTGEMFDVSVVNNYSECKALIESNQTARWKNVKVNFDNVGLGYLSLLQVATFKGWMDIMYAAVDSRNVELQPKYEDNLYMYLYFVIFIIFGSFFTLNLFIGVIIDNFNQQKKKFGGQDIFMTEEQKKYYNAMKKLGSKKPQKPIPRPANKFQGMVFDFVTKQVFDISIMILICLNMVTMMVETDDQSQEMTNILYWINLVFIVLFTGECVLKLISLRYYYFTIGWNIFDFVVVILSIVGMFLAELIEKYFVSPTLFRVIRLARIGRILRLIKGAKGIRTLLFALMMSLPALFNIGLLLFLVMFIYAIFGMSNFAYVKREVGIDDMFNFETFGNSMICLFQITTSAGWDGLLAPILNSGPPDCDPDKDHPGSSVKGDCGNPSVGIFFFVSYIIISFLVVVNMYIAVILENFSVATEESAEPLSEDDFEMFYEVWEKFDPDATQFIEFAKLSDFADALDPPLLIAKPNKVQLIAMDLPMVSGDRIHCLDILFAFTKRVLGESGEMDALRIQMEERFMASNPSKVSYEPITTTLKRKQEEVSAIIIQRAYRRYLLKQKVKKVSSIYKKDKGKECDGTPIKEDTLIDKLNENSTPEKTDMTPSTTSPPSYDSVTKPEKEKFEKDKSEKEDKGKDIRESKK

[3] = target: T3, GABA transaminase (Rattus norvegicus, UniProt P50554); experiment: enzyme assay; format: biochemical; conditions: 1.0E-06 M
T3 construct: rat brain; from tissue; host or cells: rat brain

[4] = target: PDE5 (h) (non-selective) (Homo sapiens, UniProt O76074); experiment: biochemical
[5] = Standard elevated plus maze; conditions: male, C57/BL6, mouse, in vivo, 3 mg/kg
[6] = test system: C57/BL6 mice; experiment: Standard elevated plus maze; conditions: 3 mg/kg oral, 60 min prior
[7] = Pharmacokinetic studies in mice; conditions: male, C57BL/6, mouse, in vivo
[8] = target: T4, human TRPC4 (hTRPC4) (Homo sapiens, UniProt Q9UBN4); experiment: Fluorometric calcium influx assay; format: cell-based; conditions: 1 pM to 1 μM, n = 8
T4 construct: The cDNAs for various full-length ion channels were subcloned into pcDNA5/TO; expressed in transfected cells; M1R co-expressed in the calcium assay, M2R in patch clamp

[9] = target: T5, hTRPC5 (Homo sapiens, UniProt Q9UL62); experiment: Whole-cell manual patch clamp; format: cell-based
T5 construct: The cDNAs for various full-length ion channels were subcloned into pcDNA5/TO; expressed in transfected cells
T5 sequence (Q9UL62 whole entry): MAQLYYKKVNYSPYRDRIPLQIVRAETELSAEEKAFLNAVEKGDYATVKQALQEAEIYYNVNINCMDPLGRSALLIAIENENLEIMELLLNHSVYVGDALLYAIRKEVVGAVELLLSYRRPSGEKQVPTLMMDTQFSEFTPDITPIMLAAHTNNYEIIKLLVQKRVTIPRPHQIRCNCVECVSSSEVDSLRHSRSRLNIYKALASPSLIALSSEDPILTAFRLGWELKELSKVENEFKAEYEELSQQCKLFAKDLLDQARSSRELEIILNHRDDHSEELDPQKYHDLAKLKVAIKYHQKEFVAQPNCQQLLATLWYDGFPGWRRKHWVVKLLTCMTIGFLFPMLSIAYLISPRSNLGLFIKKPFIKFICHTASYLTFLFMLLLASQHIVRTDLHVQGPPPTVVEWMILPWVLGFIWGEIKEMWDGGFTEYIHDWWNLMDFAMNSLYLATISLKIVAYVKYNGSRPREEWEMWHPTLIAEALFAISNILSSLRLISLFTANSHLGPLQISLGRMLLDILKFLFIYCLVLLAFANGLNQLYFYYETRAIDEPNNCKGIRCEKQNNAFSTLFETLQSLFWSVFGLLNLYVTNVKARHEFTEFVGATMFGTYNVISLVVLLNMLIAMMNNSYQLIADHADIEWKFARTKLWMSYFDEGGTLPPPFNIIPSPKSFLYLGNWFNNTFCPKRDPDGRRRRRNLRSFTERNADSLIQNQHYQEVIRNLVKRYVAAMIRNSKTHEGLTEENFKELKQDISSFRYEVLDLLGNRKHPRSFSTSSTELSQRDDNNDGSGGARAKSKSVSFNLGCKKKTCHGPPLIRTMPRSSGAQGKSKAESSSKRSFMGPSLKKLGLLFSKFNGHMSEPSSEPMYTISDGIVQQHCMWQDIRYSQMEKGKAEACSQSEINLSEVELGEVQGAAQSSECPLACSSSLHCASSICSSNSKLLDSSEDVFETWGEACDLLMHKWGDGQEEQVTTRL

[10] = target: T6, mTRPC4 (Mus musculus, UniProt Q9QUQ5); experiment: Whole-cell manual patch clamp; format: cell-based; conditions: 10 µM carbachol /M1R
T6 construct: The cDNAs for various full-length ion channels were subcloned into pcDNA5/TO; expressed in transfected cells

[11] = target: T7, β3 (h) (Homo sapiens, UniProt P13945); format: binding; conditions: 1.0E-06 M
T7 construct: (endogenous); host or cells: SK-N-MC cells
T7 sequence (P13945 whole entry): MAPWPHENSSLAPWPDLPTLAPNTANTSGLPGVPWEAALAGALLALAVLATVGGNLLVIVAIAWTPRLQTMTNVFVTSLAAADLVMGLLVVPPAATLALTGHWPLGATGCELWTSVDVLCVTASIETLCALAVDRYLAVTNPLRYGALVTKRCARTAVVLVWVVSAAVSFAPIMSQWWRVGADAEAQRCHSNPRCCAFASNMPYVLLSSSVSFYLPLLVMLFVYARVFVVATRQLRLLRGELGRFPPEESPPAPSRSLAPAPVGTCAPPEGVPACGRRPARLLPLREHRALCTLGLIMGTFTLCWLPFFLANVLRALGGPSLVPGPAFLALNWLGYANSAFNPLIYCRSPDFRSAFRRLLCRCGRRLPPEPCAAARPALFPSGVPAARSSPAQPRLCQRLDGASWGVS

[12] = target: CCK1 (CCKA) (h) (Homo sapiens, UniProt P32238); format: binding; conditions: 1.0E-06 M
Sequence of CCK1 (CCKA) (h) (P32238 whole entry): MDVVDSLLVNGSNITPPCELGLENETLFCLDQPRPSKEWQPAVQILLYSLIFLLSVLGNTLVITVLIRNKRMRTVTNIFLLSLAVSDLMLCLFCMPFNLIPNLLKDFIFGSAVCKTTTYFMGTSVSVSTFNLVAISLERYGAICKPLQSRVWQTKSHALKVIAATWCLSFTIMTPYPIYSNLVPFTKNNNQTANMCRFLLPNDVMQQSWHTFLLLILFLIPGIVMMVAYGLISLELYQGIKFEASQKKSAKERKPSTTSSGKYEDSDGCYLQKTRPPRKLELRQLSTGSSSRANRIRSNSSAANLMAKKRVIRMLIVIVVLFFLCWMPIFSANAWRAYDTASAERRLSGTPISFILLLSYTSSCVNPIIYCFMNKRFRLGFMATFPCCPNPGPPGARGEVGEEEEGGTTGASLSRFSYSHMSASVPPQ

[13] = test system: kainate; format: binding, rat; conditions: 1.0E-06 M
[14] = test system: TNF-α (h); format: binding, human; conditions: 1.0E-06 M
[15] = target: T8, MC1 (Mus musculus, UniProt Q01727); format: binding; conditions: 1.0E-06 M
T8 construct: (endogenous); host or cells: B16-F1 cells
T8 sequence (Q01727 whole entry): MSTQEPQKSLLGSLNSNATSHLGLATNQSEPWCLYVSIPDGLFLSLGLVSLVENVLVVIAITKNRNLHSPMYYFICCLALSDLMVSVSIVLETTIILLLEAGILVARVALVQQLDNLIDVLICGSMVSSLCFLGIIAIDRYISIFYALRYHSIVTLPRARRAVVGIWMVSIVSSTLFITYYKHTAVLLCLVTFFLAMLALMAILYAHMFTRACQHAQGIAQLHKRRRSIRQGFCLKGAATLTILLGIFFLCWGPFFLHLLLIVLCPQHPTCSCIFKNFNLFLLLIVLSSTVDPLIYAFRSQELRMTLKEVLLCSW

[16] = target: T9, MC4 (h) (Homo sapiens, UniProt P32245); format: binding; conditions: 1.0E-06 M
T9 construct: host or cells: CHO cells
T9 sequence (P32245 whole entry): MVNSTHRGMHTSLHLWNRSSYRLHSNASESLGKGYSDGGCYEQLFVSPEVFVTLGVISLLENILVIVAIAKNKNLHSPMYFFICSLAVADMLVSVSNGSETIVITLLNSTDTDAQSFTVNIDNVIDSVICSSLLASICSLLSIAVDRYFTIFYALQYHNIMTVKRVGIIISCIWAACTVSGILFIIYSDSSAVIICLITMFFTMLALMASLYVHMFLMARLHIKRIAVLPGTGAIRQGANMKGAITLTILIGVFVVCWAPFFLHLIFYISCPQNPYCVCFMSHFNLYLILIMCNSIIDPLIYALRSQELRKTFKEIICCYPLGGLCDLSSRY

[17] = target: T10, M1 (h) (Homo sapiens, UniProt P11229); experiment: biochemical; format: binding; conditions: 1.0E-06 M
T10 construct: host or cells: CHO cells
T10 sequence (P11229 1-460): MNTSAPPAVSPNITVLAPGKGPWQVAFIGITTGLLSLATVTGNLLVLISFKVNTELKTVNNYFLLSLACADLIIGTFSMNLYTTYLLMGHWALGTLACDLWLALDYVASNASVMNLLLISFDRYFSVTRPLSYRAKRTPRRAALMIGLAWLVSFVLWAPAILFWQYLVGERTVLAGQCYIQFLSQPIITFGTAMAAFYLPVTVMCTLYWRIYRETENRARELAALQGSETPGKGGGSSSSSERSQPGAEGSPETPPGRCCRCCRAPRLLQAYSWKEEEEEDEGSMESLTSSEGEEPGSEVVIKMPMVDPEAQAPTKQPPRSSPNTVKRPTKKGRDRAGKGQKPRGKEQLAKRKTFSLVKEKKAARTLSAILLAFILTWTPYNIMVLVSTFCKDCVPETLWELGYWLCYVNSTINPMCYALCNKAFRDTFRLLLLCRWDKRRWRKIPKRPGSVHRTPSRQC

[18] = target: T11, PPARγ (h) (Homo sapiens, UniProt P37231); format: binding
T11 construct: Cerep; host or cells: E. coli
T11 sequence (P37231 1-505): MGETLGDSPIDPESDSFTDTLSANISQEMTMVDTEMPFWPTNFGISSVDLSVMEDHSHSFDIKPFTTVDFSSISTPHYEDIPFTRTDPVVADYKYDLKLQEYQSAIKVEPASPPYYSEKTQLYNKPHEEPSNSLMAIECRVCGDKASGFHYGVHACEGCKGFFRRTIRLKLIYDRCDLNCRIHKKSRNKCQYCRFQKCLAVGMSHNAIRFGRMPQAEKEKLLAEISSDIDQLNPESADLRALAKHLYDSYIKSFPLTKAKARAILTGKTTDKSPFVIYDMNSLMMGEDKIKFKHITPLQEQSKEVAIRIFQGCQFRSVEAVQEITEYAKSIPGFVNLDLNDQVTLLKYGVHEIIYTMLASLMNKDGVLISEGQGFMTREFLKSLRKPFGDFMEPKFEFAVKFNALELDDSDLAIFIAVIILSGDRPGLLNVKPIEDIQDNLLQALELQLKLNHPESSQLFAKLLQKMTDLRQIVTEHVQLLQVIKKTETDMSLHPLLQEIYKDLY

[19] = target: T12, 5-HT2B (h) (Homo sapiens, UniProt P41595); format: binding; conditions: 1.0E-06 M
T12 construct: host or cells: CHO cells
T12 sequence (P41595 whole entry): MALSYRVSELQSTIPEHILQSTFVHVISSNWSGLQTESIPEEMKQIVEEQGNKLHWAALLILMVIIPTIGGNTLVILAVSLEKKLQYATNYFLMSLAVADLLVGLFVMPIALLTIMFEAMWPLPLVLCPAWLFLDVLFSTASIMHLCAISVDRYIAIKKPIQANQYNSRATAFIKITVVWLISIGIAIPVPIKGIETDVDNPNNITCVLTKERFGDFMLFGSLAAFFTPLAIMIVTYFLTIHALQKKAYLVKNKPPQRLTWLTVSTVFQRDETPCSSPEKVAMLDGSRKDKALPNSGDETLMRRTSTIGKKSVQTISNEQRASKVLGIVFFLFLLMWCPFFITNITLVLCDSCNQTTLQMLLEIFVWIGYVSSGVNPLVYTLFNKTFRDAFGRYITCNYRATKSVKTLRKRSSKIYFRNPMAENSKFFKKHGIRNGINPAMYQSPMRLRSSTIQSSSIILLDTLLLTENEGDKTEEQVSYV

[20] = test system: TR (TH); format: binding, rat; conditions: 1.0E-06 M
[21] = test system: Cl- channel (GABA-gated); format: binding, rat; conditions: 1.0E-06 M

Cn1c(=O)n(CCCO)c(=O)c2c1nc(Oc1cccc(Cl)c1)n2Cc1ccc(Cl)cc1 [HC-070]
IC50 [1]: > 1900 nM | IC50 [2]: > 1900 nM | inhibition at 1 µM ([3]; read-out: % Inhibition 1st): -33.1% | inhibition at 1 µM ([3]; read-out: % Inhibition Mean): -34.6% | inhibition at 1 µM ([4]; read-out: % Inhibition 1st): 27.3% | inhibition at 1 µM ([4]; read-out: % Inhibition 2nd): 50.4% | inhibition at 1 µM ([4]; read-out: % Inhibition Mean): 38.9% | concentration at 60 min [5]: 782 ± 250 nM | number of open arm entries compared to vehicle [6]: increased open arm entries; also recorded: significantly increased | half-life ([7]; iv, 1 mg/kg): 3.5 h | half-life ([7]; po, 10 mg/kg): 3.3 h

Cn1c(=O)n(CCCO)c(=O)c2c1nc(Oc1cccc(OC(F)(F)F)c1)n2Cc1ccc(Cl)cc1 [HC-608]
IC50 [8]: 32.5 ± 1.8 nM | IC50 ([9]; 20 μM carbachol/M1R): ~0.67 nM | IC50 ([9]; La3+ (80 μM)): ~0.17 nM | IC50 [10]: ~0.45 nM | IC50 [2]: > 1640 nM | inhibition at 1 µM ([11]; read-out: % Inhibition 1st): 0.9% | inhibition at 1 µM ([11]; read-out: % Inhibition 2nd): -6.7% | inhibition at 1 µM ([11]; read-out: % Inhibition Mean): -2.9% | inhibition at 1 µM ([12]; read-out: % Inhibition 1st): -11.2% | inhibition at 1 µM ([12]; read-out: % Inhibition 2nd): -0.4% | inhibition at 1 µM ([12]; read-out: % Inhibition Mean): -5.8% | % Inhibition 1st [13]: 5.9% | % Inhibition 2nd [13]: 5.3% | % Inhibition Mean [13]: 5.6% | % Inhibition 1st [14]: 8.8% | % Inhibition 2nd [14]: -8.6% | % Inhibition Mean [14]: 0.1% | inhibition at 1 µM ([15]; read-out: % Inhibition 1st): 1% | inhibition at 1 µM ([15]; read-out: % Inhibition 2nd): -3.6% | inhibition at 1 µM ([15]; read-out: % Inhibition Mean): -1.3% | inhibition at 1 µM ([16]; read-out: % Inhibition 1st): 2.9% | inhibition at 1 µM ([16]; read-out: % Inhibition 2nd): -4.8% | inhibition at 1 µM ([16]; read-out: % Inhibition Mean): -1% | inhibition at 1 µM ([17]; read-out: % Inhibition 1st): -1.6% | inhibition at 1 µM ([17]; read-out: % Inhibition 2nd): 5.5% | inhibition at 1 µM ([17]; read-out: % Inhibition Mean): 2% | inhibition at 1 µM ([18]; 1.0E-06 M, read-out: % Inhibition 1st): 6.7% | inhibition at 1 µM ([18]; 1.0E-06 M, read-out: % Inhibition 2nd): 16.2% | inhibition at 1 µM ([18]; read-out: % Inhibition Mean): 11.5% | inhibition at 1 µM ([19]; read-out: % Inhibition 1st): 15.9% | inhibition at 1 µM ([19]; read-out: % Inhibition 2nd): 15.8% | inhibition at 1 µM ([19]; read-out: % Inhibition Mean): 15.9% | % Inhibition 1st [20]: 3.2% | % Inhibition 2nd [20]: -1.6% | % Inhibition Mean [20]: 0.8% | % Inhibition 1st [21]: 24.7% | % Inhibition 2nd [21]: 23.2% | % Inhibition Mean [21]: 23.9% | inhibition at 1 µM ([4]; read-out: % Inhibition 1st): 54.6% | inhibition at 1 µM ([4]; read-out: % Inhibition 2nd): 59.4% | inhibition at 1 µM ([4]; read-out: % Inhibition Mean): 57%
